Experimental data taken from ChEMBL document CHEMBL1144147, “New annonaceous acetogenins from Rollinia mucosa” (J Nat Prod, 1999).
In brackets after ≈: the same amount, converted by molar mass.

Assay: Cytotoxicity against human HepG2(2.2.15) cells after 3 day
Format: functional, cell-based
Details: HepG2 2.2.15, 72 h

## COc1cccc2c1C(=O)c1c(O)c3c(c(O)c1C2=O)C[C@@](O)(C(=O)CO)C[C@@H]3O[C@H]1C[C@H](N)[C@H](O)[C@H](C)O1 [DOXORUBICIN]
  IC50: 0.45 µg/mL (≈ 0.828 µM)
